# How the values were obtained:
# [1] = tested on: surinam grass; assay: Test B pre/postemergence surinam grass; type: in vivo, Brachiaria decumbens
# In short: (§1)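 Test chemicals in a non-phytotoxic solvent mixture with surfactant were sprayed preemergence onto planted seeds and postemergence onto plants 2 to 18 cm tall (1- to 4-leaf stage). After twelve to sixteen days in a greenhouse, injury was visually rated against untreated controls from 0 (no effect) to 10 (complete control).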
# [2] = tested on: pigweed; assay: Test B pre/postemergence pigweed; type: in vivo, Amaranthus retroflexus; details: for Plant response rating, Redroot pigweed: Postemergence; for Redroot pigweed plant response rating: Preemergence
# In short: as §1
# [3] = tested on: velvetleaf; assay: Test B pre/postemergence velvetleaf; type: in vivo, Abutilon theophrasti; details: for Plant response rating, Velvetleaf: Postemergence
# In short: as §1
# [4] = tested on: morningglory; assay: Test B pre/postemergence morningglory; type: in vivo, Ipomoea hederacea
# In short: as §1
# [5] = tested on: crabgrass; assay: Test B pre/postemergence crabgrass; type: in vivo, Digitaria sanguinalis
# In short: as §1
# [6] = tested on: blackgrass; assay: Test B pre/postemergence blackgrass; type: in vivo, Alopecurus myosuroides
# In short: as §1
# [7] = tested on: sugar beet; assay: Test B pre/postemergence sugar beet; type: in vivo, Beta vulgaris; details: for Plant response rating, Sugarbeets: Postemergence
# In short: as §1
# [8] = tested on: bedstraw; assay: Test B pre/postemergence bedstraw; type: in vivo, Galium aparine; details: Preemergence
# In short: as §1
# [9] = tested on: cocklebur; assay: Test B pre/postemergence cocklebur; type: in vivo, Xanthium strumarium
# In short: as §1
# [10] = tested on: soybean; assay: Test B pre/postemergence soybean; type: in vivo, Glycine max; details: for Plant response rating, Soybean: Postemergence
# In short: as §1
# [11] = tested on: wild oat; assay: Test B pre/postemergence wild oat; type: in vivo, Avena fatua; details: for Plant response rating, Wild oats: Postemergence
# In short: as §1
# [12] = tested on: rape; assay: Test B pre/postemergence rape; type: in vivo, Brassica napus
# In short: as §1
# [13] = tested on: purple nutsedge; assay: Test B pre/postemergence purple nutsedge; type: in vivo, Cyperus rotundus
# In short: as §1
# [14] = tested on: wheat; assay: Test B pre/postemergence wheat; type: in vivo, Triticum aestivum; details: for Plant response rating, Wheat: Postemergence
# In short: as §1
# [15] = tested on: giant foxtail; assay: Test B pre/postemergence giant foxtail; type: in vivo, Setaria faberii
# In short: as §1
# [16] = tested on: corn; assay: Test B pre/postemergence corn; type: in vivo, Zea mays
# In short: as §1
# [17] = Postemergence, Rate 62 g/ha, scale of 0 to 10, 0 is no effect, 10 is complete control
# [18] = Postemergence, Rate 125 g/ha, scale 0 to 10, 0 is no effect, 10 is complete control
# [19] = Postemergence, Rate 500 g/ha, scale of 0 to 10 where 0 is no effect and 10 is complete control
# [20] = Preemergence, Rate 62 g/ha, scale 0 to 10 (0 no effect, 10 complete control)
# [21] = Preemergence, Rate 125 g/ha, scale 0 to 10, 0 is no effect, 10 is complete control
# [22] = Preemergence, Rate 500 g/ha, scale of 0 to 10 where 0 is no effect and 10 is complete control
# [23] = Rate 250 g/ha, Postemergence, scale of 0 to 10 where 0 is no effect and 10 is complete control
# [24] = Rate 500 g/ha, scale of 0 to 10 where 0 is no effect and 10 is complete control
# [25] = Rate 62 g/ha, scale 0 to 10 (0 no effect, 10 complete control)
# [26] = Rate 125 g/ha, scale 0 to 10, 0 is no effect, 10 is complete control
# [27] = Rate 250 g/ha, scale of 0 to 10 where 0 is no effect and 10 is complete control
smiles,measurement,setting,value
CC(C)=CCn1c(=O)on(C(=O)N(c2ccccc2)C(C)C)c1=O [Compound 574],B. signalgrass plant response rating,[1]; [17],0
same,B. signalgrass plant response rating,[1]; [18],0
same,"Plant response rating, B. signalgrass",[1]; [19],0
same,B. signalgrass plant response rating,[1]; [20],4
same,B. signalgrass plant response rating,[1]; [21],7
same,"B. signalgrass plant response rating (0 to 10 scale, 0 is no effect, 10 is complete control)","[1]; Preemergence, Rate 250 g/ha",10
same,B. signalgrass plant response rating,[1]; [22],9
same,"Plant response rating, B. signalgrass",[1]; [23],0
same,"Plant response rating, Redroot pigweed",[2]; [24],5
same,Redroot pigweed plant response rating,[2]; [25],0
same,Redroot pigweed plant response rating,[2]; [26],0
same,Redroot pigweed plant response rating,[2]; [24],9
same,"Plant response rating, Redroot pigweed",[2]; [27],0
same,"Plant response rating, Velvetleaf",[3]; [24],2
same,Velvetleaf plant response rating,[3]; [20],0
same,Velvetleaf plant response rating,[3]; [21],0
same,Velvetleaf plant response rating (0 to 10 scale),"[3]; Preemergence, Rate 250 g/ha",2
same,Velvetleaf plant response rating,[3]; [22],2
same,"Plant response rating, Velvetleaf",[3]; [27],2
same,Morningglory plant response rating,[4]; [17],10
same,Morningglory plant response rating,[4]; [18],10
same,"Plant response rating, Morningglory",[4]; [19],10
same,Morningglory plant response rating,[4]; [20],0
same,Morningglory plant response rating,[4]; [21],0
same,Morningglory plant response rating (0 to 10 scale),"[4]; Preemergence, Rate 250 g/ha",0
same,Morningglory plant response rating,[4]; [22],0
same,"Plant response rating, Morningglory",[4]; [23],10
same,Crabgrass plant response rating,[5]; [17],0
same,Crabgrass plant response rating,[5]; [18],2
same,"Plant response rating, Crabgrass",[5]; [19],2
same,Crabgrass plant response rating,[5]; [20],2
same,Crabgrass plant response rating,[5]; [21],9
same,Crabgrass plant response rating (0 to 10 scale),"[5]; Preemergence, Rate 250 g/ha",9
same,Crabgrass plant response rating,[5]; [22],9
same,Blackgrass plant response rating,[6]; [17],2
same,Blackgrass plant response rating,[6]; [18],6
same,Blackgrass plant response rating,[6]; [20],0
same,Blackgrass plant response rating,[6]; [21],0
same,Blackgrass plant response rating (0 to 10 scale),"[6]; Preemergence, Rate 250 g/ha",2
same,Blackgrass plant response rating,[6]; [22],2
same,"Plant response rating, Blackgrass",[6]; [23],6
same,"Plant response rating, Sugarbeets",[7]; [24],0
same,Sugarbeets plant response rating,[7]; [20],0
same,Sugarbeets plant response rating,[7]; [21],0
same,Sugarbeets plant response rating (0 to 10 scale),"[7]; Preemergence, Rate 250 g/ha",0
same,Sugarbeets plant response rating,[7]; [22],3
same,"Plant response rating, Sugarbeets",[7]; [27],0
same,Bedstraw plant response rating,[8]; [25],0
same,Bedstraw plant response rating,[8]; [26],0
same,Bedstraw plant response rating (0 to 10 scale),[8]; Rate 250 g/ha,0
same,Bedstraw plant response rating,[8]; [24],0
same,Cocklebur plant response rating,[9]; [17],0
same,Cocklebur plant response rating,[9]; [18],2
same,"Plant response rating, Cocklebur",[9]; [19],2
same,Cocklebur plant response rating,[9]; [20],0
same,Cocklebur plant response rating,[9]; [21],0
same,Cocklebur plant response rating (0 to 10 scale),"[9]; Preemergence, Rate 250 g/ha",0
same,Cocklebur plant response rating,[9]; [22],0
same,"Plant response rating, Cocklebur",[9]; [23],2
same,"Plant response rating, Soybean",[10]; [24],7
same,Soybean plant response rating,[10]; [20],0
same,Soybean plant response rating,[10]; [21],0
same,Soybean plant response rating (0 to 10 scale),"[10]; Preemergence, Rate 250 g/ha",0
same,Soybean plant response rating,[10]; [22],0
same,"Plant response rating, Soybean",[10]; [27],6
same,"Plant response rating, Wild oats",[11]; [24],0
same,Wild oats plant response rating,[11]; [20],0
same,Wild oats plant response rating,[11]; [21],0
same,Wild oats plant response rating (0 to 10 scale),"[11]; Preemergence, Rate 250 g/ha",0
same,Wild oats plant response rating,[11]; [22],3
same,"Plant response rating, Wild oats",[11]; [27],0
same,Rape plant response rating,[12]; [17],0
same,Rape plant response rating,[12]; [18],0
same,"Plant response rating, Rape",[12]; [19],3
same,Rape plant response rating,[12]; [20],0
same,Rape plant response rating,[12]; [21],0
same,Rape plant response rating (0 to 10 scale),"[12]; Preemergence, Rate 250 g/ha",0
same,Rape plant response rating,[12]; [22],0
same,"Plant response rating, Rape",[12]; [23],0
same,Nutsedge plant response rating,[13]; [17],0
same,"Plant response rating, Nutsedge",[13]; [19],0
same,Nutsedge plant response rating,[13]; [20],0
same,Nutsedge plant response rating,[13]; [21],0
same,Nutsedge plant response rating (0 to 10 scale),"[13]; Preemergence, Rate 250 g/ha",0
same,Nutsedge plant response rating,[13]; [22],0
same,"Plant response rating, Nutsedge",[13]; [23],0
same,"Plant response rating, Wheat",[14]; [24],2
same,Wheat plant response rating,[14]; [20],0
same,Wheat plant response rating,[14]; [21],0
same,Wheat plant response rating (0 to 10 scale),"[14]; Preemergence, Rate 250 g/ha",0
same,Wheat plant response rating,[14]; [22],0
same,"Plant response rating, Wheat",[14]; [27],0
same,Giant foxtail plant response rating,[15]; [17],2
same,Giant foxtail plant response rating,[15]; [18],7
same,"Plant response rating, Giant foxtail",[15]; [19],8
same,Giant foxtail plant response rating,[15]; [20],9
same,Giant foxtail plant response rating,[15]; [21],10
same,Giant foxtail plant response rating (0 to 10 scale),"[15]; Preemergence, Rate 250 g/ha",10
same,Giant foxtail plant response rating,[15]; [22],10
same,"Plant response rating, Giant foxtail",[15]; [23],6
same,Corn plant response rating,[16]; [17],0
same,Corn plant response rating,[16]; [18],0
same,"Plant response rating, Corn",[16]; [19],0
same,Corn plant response rating,[16]; [20],0
same,Corn plant response rating,[16]; [21],0
same,Corn plant response rating (0 to 10 scale),"[16]; Preemergence, Rate 250 g/ha",0
same,Corn plant response rating,[16]; [22],0
same,"Plant response rating, Corn",[16]; [23],0

# From patent publication US6737383B1, “Herbicidal oxadiazolidines” (priority 1999, dated 2004)
